Data reported in patent US20080200531A1, “CDKI pathway inhibitors as inhibitors of tumor cell growth” (priority 2006, published 2008).

Tests used:
[1] = Range Finder Study (acute toxicity, MTD) in NCr nude mice; format: in vivo; conditions: for impact on White Blood Cell count, first iteration: up to 17.6 mg/kg intravenously; for impact on White Blood Cell count, second iteration / toxicity in the Range Finder Study: up to 70.4 mg/kg intravenously
Experimental: Male NCr nude mice, aged approximately 6-8 weeks were used for the study, which was carried out as a service by Taconic Biotechnology, Rensselaer, N.Y. Animals were maintained under virus free barrier conditions with continuous health monitoring. The administration of test materials, all data collection and disposal of study animals was in compliance with all relevant Taconic Biotechnology Standard Operating Procedures as well as The Guide for the Care and Use of Laboratory Animals. Study animals were observed upon arrival and daily throughout the study for overall health, behavior and morbidity. Test animals were subject to body weight measurement to determine dosage volumes of test articles.
The initial part of this analysis was a Range Finder Study, designed to evaluate acute toxicity and to identify the maximum tolerated dose (MTD) for therapeutic study. The Range Finder Study was performed twice. For the first iteration, 30 mice were injected intravenously with SNX9 and SNX9-1 in groups of 3 with phosphate buffered saline (PBS) only, 2.2 mg/kg SNX9, 4.4 mg/kg SNX9 8.8 mg/kg SNX9, 17.6 mg/kg SNX9, 80% PBS: 20% DMSO, 2.2 mg/kg SNX9-1, 4.4 mg/kg SNX9-1 8.8 mg/kg SNX9-1, 17.6 mg/kg SNX9-1. SNX9 was dissolved in PBS and SNX9-1 was dissolved in 80% PBS:20% DMSO. The volume injected per animal was approximately 0.1 ml/injection. […] All other animals appeared healthy and thrived for the duration of the 3 day period of observation, and their general health and body weight were assessed. For all the mice, there was no significant weight change (see Table 4). At the end of the 3 day observation period all the mice were euthanized and a terminal blood sample was collected via cardiac puncture. These blood samples were analyzed for complete blood count evaluation. […] A slight elevation of Red Blood Cell count was detected in approximately half of the groups, although this elevation was less than a 7% increase above the upper reference range and was not considered significant. All other blood count categories placed within the reference range.
For the second iteration, 24 mice were injected intravenously with SNX9 and SNX9-1 in groups of 3 with PBS only, 17.6 mg/kg SNX9, 35.2 mg/kg SNX9, 70.4 mg/kg SNX9, 80% PBS:20% DMSO, […] SNX9-1, 35.2 mg/kg SNX9-1, 70.4 mg/kg SNX9-1. […] All other animals were healthy for the duration of the 3 day period during which the animals were observed and their general health and body weight were assessed. For all the mice, there was no significant weight change (see Table 4). The average beginning weight for the mice in the second iteration was 23.7 g±1.73. After the 3 day observation period all the mice were euthanized and a terminal blood sample was collected via cardiac puncture. These blood samples were analyzed for complete blood count evaluation. […] A slight elevation of Red Blood Cell count was detected in approximately 7 out of eight of the groups, although this elevation was less than a 6% increase above the upper reference range and was not considered significant. All other blood count categories placed within the reference range.

CDK1/cyclinB (h) = target: T1, CDK1/cyclinB (h) (Homo sapiens, UniProt P06493); assay: Cyclin/CDK kinase assay (Upstate), CDK1/cyclinB; format: biochemical; conditions: 100 μM, re-tested at 20 and 40 μM (SNX9, SNX2) or 10 and 20 μM (SNX9-1, SNX14)
T1 construct: purchased Upstate Biotechnology, Inc
T1 sequence (P06493 whole entry): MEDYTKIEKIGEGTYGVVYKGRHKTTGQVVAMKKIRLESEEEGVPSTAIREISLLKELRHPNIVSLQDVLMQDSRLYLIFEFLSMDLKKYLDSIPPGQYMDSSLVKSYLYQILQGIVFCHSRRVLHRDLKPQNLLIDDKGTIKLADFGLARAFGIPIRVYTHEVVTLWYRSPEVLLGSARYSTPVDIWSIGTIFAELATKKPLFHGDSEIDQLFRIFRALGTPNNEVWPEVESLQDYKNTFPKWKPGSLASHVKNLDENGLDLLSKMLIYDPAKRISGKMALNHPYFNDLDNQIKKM
T1 sequence (P14635 whole entry partner): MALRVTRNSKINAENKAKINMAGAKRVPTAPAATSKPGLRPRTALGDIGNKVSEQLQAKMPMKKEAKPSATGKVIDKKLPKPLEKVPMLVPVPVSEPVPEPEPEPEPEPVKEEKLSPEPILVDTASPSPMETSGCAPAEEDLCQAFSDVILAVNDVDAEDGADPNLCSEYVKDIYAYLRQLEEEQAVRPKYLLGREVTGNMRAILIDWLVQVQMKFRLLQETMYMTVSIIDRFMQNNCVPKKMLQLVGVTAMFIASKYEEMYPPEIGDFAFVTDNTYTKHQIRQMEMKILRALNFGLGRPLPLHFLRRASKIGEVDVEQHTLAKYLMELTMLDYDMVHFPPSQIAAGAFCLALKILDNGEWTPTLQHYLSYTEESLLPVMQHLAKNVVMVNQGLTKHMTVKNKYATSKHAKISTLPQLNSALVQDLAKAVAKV
Experimental: To test the above hypothesis, we determined whether several CDKI pathway inhibitors, including two SNX9 class compounds (SNX9 and SNX9-1), two compounds of a different structural class (SNX14 and SNX2) and another unrelated inhibitor (SNX35), inhibit the kinase activity of different complexes formed in vitro by purified cyclin/CDK complexes. This analysis was carried out as a service by Upstate Biotechnology, Inc.
In a final reaction volume of 25 μl, CDK1/cyclinB (h) (5-10 μU) is incubated with 8 mM MOPS pH 7.0, 0.2 mM EDTA, 0.1 mg/ml histone H1, 10 mM MgAcetate and [γ-33P-ATP] (specific activity approx. 500 cpm/pmol, 45 μM concentration). The reaction is initiated by the addition of the MgATP mix. After incubation for 40 minutes at room temperature, the reaction is stopped by the addition of 5 μl of a 3% phosphoric acid solution. 10 μl of the reaction is then spotted onto a P30 filtermat and washed three times for 5 minutes in 75 mM phosphoric acid and once in methanol prior to drying and scintillation counting.
At the first step, all the compounds were tested at 100 μM concentration. […] For SNX14 and SNX2, the relative efficacy of inhibition was CDK1>CDK2˜CDK3>CDK6. For SNX9 and SNX9-1, the order was CDK3>CDK1>CDK2>CDK6 (FIG. 12).

[2] = system: WI-38 and BJ-EN fibroblasts vs HT1080, HCT116, C33-A, Calu-6; assay: 3-day growth inhibition assay (Hoechst 33342), normal fibroblasts vs tumor cell lines; conditions: 3-day assay, WI-38, BJ-EN vs HT1080, HCT116, C33-A
Experimental: The assays were carried out in 96-well plates, in triplicates; the plated cell numbers for each cell line were determined in preliminary experiments to assure exponential growth over the 3-day period of the assay. The cell numbers were measured by staining DNA of attached cells with Hoechst 33342, and the results for each dose were expressed as the decrease in cell number relative to untreated cells. For some of the tumor/normal cell line combinations, the assays were repeated using CellTiter-Glo viability assay (Promega), with the same results.

HT1080 p21-9 cells = assay: FACS analysis of DNA content and GF7 mitotic staining; format: cell-based, human
From the text: The combination of p21 and SNX9-class compounds leads to both G1 and G2/M arrest, at the levels expected for the combined effects of p21 and SNX9 (FIG. 6).

| Compound | deaths, first iteration ([1]; 2.2 mg/kg (lowest dose) group of 3, intravenously, day one, apparently due to shock) | impact on White Blood Cell count, first iteration [1] | impact on White Blood Cell count, second iteration [1] | toxicity in the Range Finder Study [1] | kinase activity of CDK1 (CDC2) (CDK1/cyclinB (h)) | tumor selectivity of growth inhibition, tumor cells vs normal fibroblasts [2] | mitotic fraction (GF7 antibody staining) (HT1080 p21-9 cells; SNX9-treated cells) | G2/M fraction (FACS analysis of DNA content) (HT1080 p21-9 cells; SNX9 alone) | deaths, second iteration ([1]; 70.4 mg/kg group of 3, intravenously, shortly after dosing, likely due to shock and not compound toxicity) |
| --- | --- | --- | --- | --- | --- | --- | --- | --- | --- |
| NCCc1c[nH]c2c(Cl)cc(Cl)cc12 [SNX9-1] | One animal died on day one | neither SNX9 nor SNX9-1 had a detectable impact on White Blood Cell count | neither SNX9 nor SNX9-1 had a detectable impact on White Blood Cell count | complete lack of toxicity | inhibited the kinase activities | inhibited all the tumor cells to a greater extent than normal fibroblasts |  |  |  |
| Cc1[nH]c2c(Cl)cccc2c1CCN [SNX9] |  | neither SNX9 nor SNX9-1 had a detectable impact on White Blood Cell count | neither SNX9 nor SNX9-1 had a detectable impact on White Blood Cell count | complete lack of toxicity | inhibited the kinase activities | inhibited all the tumor cells to a greater extent than normal fibroblasts | increase in the mitotic fraction | pronounced increase in the G2/M fraction | One animal died shortly after dosing |
